Data on 6 substances can be found in patent US9095134B2, “Antimicrobial compositions containing cationic active ingredients and quaternary sugar derived surfactants” (priority 2010, dated 2015).

Experiment [1] concerns S. aureus. In words: Time kill method (ASTM E 2315), log reduction of S. aureus. Particulars: 0.5% ADBAC Quat. It counts as cell-based, S. aureus (ATCC 6538). Here is the method: (§1) • (a) Determination of Time Kill Activity: The activity of antimicrobial compositions was measured by the time kill method [ASTM E 2315 Standard Guide for Assessment of Antimicrobial Activity Using a Time Kill Procedure], whereby the survival of challenged organisms exposed to an antimicrobial test composition is […] as a function of time. In this test, a diluted aliquot of the composition is brought into contact with a known population of test bacteria for a specified time period at a specified temperature. The test composition is neutralized at the end of the time period, which arrests the antimicrobial activity of the composition. The percent or, alternatively, log reduction from the original bacteria population is calculated. In general, the time kill method is known to those skilled in the art. In addition, comparative data on the foam profile of representative systems is shown. • (b) The composition can be tested at any concentration from 0-100%. The choice of which concentration to use is at the discretion of the investigator, and suitable concentrations are readily determined by those skilled in the art. All testing if performed in triplicate, the results are combined, and the average log reduction is reported. • (c) The choice of contact time period also is at the discretion of the investigator. Any contact time period can be chosen. Typical contact times range from 15 second to 5 minutes, with 30 seconds and 1 minute being typical contact times. The contact temperature also can be any temperature, typically room temperature, or about 25 degrees Celsius. • (d) The microbial suspension, or test inoculum, is prepared by growing a microbial culture on any appropriate solid media (e.g., agar). The microbial population then is washed from the agar with sterile physiological saline and the population of the microbial suspension is adjusted to about 10^8 colony forming units per ml (cfu/ml). • (e) The table below lists the test microbial cultures used in the following tests and includes the name of the bacteria, the ATCC (American Type Culture Collection) identification number, and the abbreviation for the name of the organism used hereafter.
(§2) S. aureus is a Gram positive bacteria, whereas, E. coli is a Gram negative bacteria.
(§3) The log reduction is calculated using the formula: Log reduction=log10(numbers control)−log10(test sample survivors). Foam Height Determination

For experiment [2], the system named is E. coli. In words: Time kill method (ASTM E 2315), log reduction of E. coli. Particulars: 0.5% ADBAC Quat. It counts as cell-based, Escherichia coli (ATCC 112229). Here is the method: as §1, §2, §3
Where [3] appears, read: 1.95% w/w foam boosting agent, 1.25% Poly Trimoniumhydroxypropyl Cocoglucosides Chloride, 30 seconds exposure.
Setting [4] is: 3.0% w/w foam boosting agent, 1.25% Poly Trimoniumhydroxypropyl Cocoglucosides Chloride, 30 seconds exposure.
The mark [5] stands for this setting: 4.2% w/w foam boosting agent, 1.25% Poly Trimoniumhydroxypropyl Cocoglucosides Chloride, 30 seconds exposure.
The mark [6] stands for this setting: quaternized sugar-derived surfactant 1.25% w/w, 1.95% alkyl dimethyl amine oxide, 30 second exposure.

With Alkyl Dimethyl Amine Oxide, the “S. aureus Log Reduction” value in experiment [1] (setting [3]), in experiment [1] (setting [4]) and in experiment [1] (setting [5]) was greater than 5.5 log each time. Further, the “E. coli Log Reduction” value in experiment [2] (setting [3]), in experiment [2] (setting [4]) and in experiment [2] (setting [5]) was greater than 5.5 log each time.

As for “Cocoglucosides Hydroxypropyl-trimonium Chloride [TM8610]”, the “S. aureus Log Reduction” value in experiment [1] (setting [6]) was greater than 5.0 log. Moreover, the “E. coli Log Reduction” value in experiment [2] (setting [6]) is listed as greater than 5.0 log.

“Lauridimonium-hydroxypropyl Cocoglucosides Chloride [L8610]”: the “S. aureus Log Reduction” value in experiment [1] (setting [6]) is listed as greater than 5.0 log. Further, the “E. coli Log Reduction” value in experiment [2] (setting [6]) is greater than 5.0 log.

Take “Lauridimonium-hydroxypropyl Laurylglucosides Chloride [L1210]”: the “S. aureus Log Reduction” value in experiment [1] (setting [6]) is listed as greater than 5.0 log. In addition, the “E. coli Log Reduction” value in experiment [2] (setting [6]) was greater than 5.0 log.

As to “Stearyldimonium-hydroxypropyl Laurylglucosides Chloride [S1218]”, in experiment [1] (setting [6]), the “S. aureus Log Reduction” value is on record as greater than 5.0 log. In addition, the “E. coli Log Reduction” value in experiment [2] (setting [6]) is greater than 5.0 log.

With “Laurylglucosides Hydroxypropyl-trimonium Chloride [TM1212]”, the “S. aureus Log Reduction” value in experiment [1] (setting [6]) is greater than 5.0 log. Further, the “E. coli Log Reduction” value in experiment [2] (setting [6]) is recorded as greater than 5.0 log.
